Activity calls are given as the source filed them. No rule for the calls is given here.
System: CCRIS mutagenicity, Ames/micronucleus/aberration tests
Assay: CCRIS mutagenicity studies
[1] = Test System: AMES SALMONELLA TYPHIMURIUM, Strain/Indicator: TA97, Metabolic Activation: NONE, Method: PREINCUBATION

Compound: Nc1ccccc1N
- mutagenic call (End Point: IN VITRO CHROMOSOMAL ABERRATIONS, Test System: CHINESE HAMSTER LUNG CELLS (CHL), Metabolic Activation: NONE): active; positive (structural changes)
- mutagenic call (End Point: IN VITRO CHROMOSOMAL ABERRATIONS, Test System: CHINESE HAMSTER LUNG CELLS (CHL), Metabolic Activation: RAT, LIVER, S-9, KC-400): inactive; negative
- mutagenic call (End Point: IN VITRO CHROMOSOMAL ABERRATIONS, Test System: CHINESE HAMSTER OVARY CELLS (CHO), Metabolic Activation: NONE): active; positive (structural changes)
- mutagenic call (End Point: IN VITRO CHROMOSOMAL ABERRATIONS, Test System: CHINESE HAMSTER OVARY CELLS (CHO), Metabolic Activation: RAT, LIVER, S-9, AROCLOR 1254): active; positive (structural changes)
- mutagenic call (End Point: IN VITRO CHROMOSOMAL ABERRATIONS, Test System: CHL CELLS, Metabolic Activation: NONE): active; positive (structural changes)
- mutagenic call (End Point: IN VITRO CHROMOSOMAL ABERRATIONS, Test System: CHL CELLS, Metabolic Activation: RAT, LIVER, S-9, SODIUM PHENOBARBITAL AND 5,6-BENZOFLAVONE): active; positive (structural changes)
- mutagenic call (Test System: AMES SALMONELLA TYPHIMURIUM, Strain/Indicator: TA97, Metabolic Activation: HAMSTER, LIVER, S-9, AROCLOR 1254 (10%), Method: PREINCUBATION): active; positive
- mutagenic call [1]: inactive; negative
- mutagenic call (Test System: AMES SALMONELLA TYPHIMURIUM, Strain/Indicator: TA97, Metabolic Activation: RAT, LIVER, S-9, AROCLOR 1254 (10%), Method: PREINCUBATION): active; positive
- mutagenic call (Test System: AMES SALMONELLA TYPHIMURIUM, Strain/Indicator: TA98(NR), Metabolic Activation: NONE, Method: PREINCUBATION): inactive; negative
- mutagenic call (Test System: AMES SALMONELLA TYPHIMURIUM, Strain/Indicator: TA98(NR), Metabolic Activation: RAT, LIVER, S-9, AROCLOR 1254, Method: PREINCUBATION): active; positive
- mutagenic call (Test System: AMES SALMONELLA TYPHIMURIUM, Strain/Indicator: TA98, Metabolic Activation: HAMSTER, LIVER, S-9, AROCLOR 1254 (10%), Method: PREINCUBATION): active; positive
- mutagenic call (Test System: AMES SALMONELLA TYPHIMURIUM, Strain/Indicator: TA98, Metabolic Activation: NONE, Method: STANDARD PLATE): inactive; negative
- mutagenic call (Test System: AMES SALMONELLA TYPHIMURIUM, Strain/Indicator: TA98, Metabolic Activation: PEA APICAL BUD S-9, Method: PREINCUBATION): active; positive
- mutagenic call (Test System: AMES SALMONELLA TYPHIMURIUM, Strain/Indicator: TA98, Metabolic Activation: PEA APICAL BUD S-9, Method: STANDARD PLATE): active; positive
- mutagenic call (Test System: AMES SALMONELLA TYPHIMURIUM, Strain/Indicator: TA98, Metabolic Activation: PLANT (PERSEA AMERICANA) S-117, Method: STANDARD PLATE): inactive; negative
- mutagenic call (Test System: AMES SALMONELLA TYPHIMURIUM, Strain/Indicator: TA98, Metabolic Activation: PLANT (ZEA MAYS) S-9, Method: STANDARD PLATE): inactive; negative
- mutagenic call (Test System: AMES SALMONELLA TYPHIMURIUM, Strain/Indicator: TA98, Metabolic Activation: RAT LIVER S-9, PHENOBARBITAL AND BETA-NAPHTHOFLAVONE, Method: PREINCUBATION): active; positive
- mutagenic call (Test System: AMES SALMONELLA TYPHIMURIUM, Strain/Indicator: TA98, Metabolic Activation: RAT, LIVER, S-9, AROCLOR 1254 (10%), Method: PREINCUBATION): active; positive
- mutagenic call (Test System: AMES SALMONELLA TYPHIMURIUM, Strain/Indicator: TA98, Metabolic Activation: RAT, LIVER, S-9, AROCLOR 1254, Method: PREINCUBATION): active; positive
- mutagenic call (Test System: AMES SALMONELLA TYPHIMURIUM, Strain/Indicator: TA98, Metabolic Activation: RAT, LIVER, S-9, AROCLOR 1254, Method: STANDARD PLATE): active; positive
- mutagenic call (Test System: AMES SALMONELLA TYPHIMURIUM, Strain/Indicator: TA98, Metabolic Activation: RAT, LIVER, S-9, PCB, Method: PREINCUBATION): active; positive
- mutagenic call (Test System: AMES SALMONELLA TYPHIMURIUM, Strain/Indicator: TA100(NR), Metabolic Activation: NONE, Method: PREINCUBATION): inactive; negative
- mutagenic call (Test System: AMES SALMONELLA TYPHIMURIUM, Strain/Indicator: TA100(NR), Metabolic Activation: RAT, LIVER, S-9, AROCLOR 1254, Method: PREINCUBATION): active; positive
- mutagenic call (Test System: AMES SALMONELLA TYPHIMURIUM, Strain/Indicator: TA100, Metabolic Activation: HAMSTER, LIVER, S-9, AROCLOR 1254 (10%), Method: PREINCUBATION): active; positive
- mutagenic call (Test System: AMES SALMONELLA TYPHIMURIUM, Strain/Indicator: TA100, Metabolic Activation: NONE, Method: STANDARD PLATE): inactive; negative
- mutagenic call (Test System: AMES SALMONELLA TYPHIMURIUM, Strain/Indicator: TA100, Metabolic Activation: PEA APICAL BUD S-9, Method: PREINCUBATION): active; positive
- mutagenic call (Test System: AMES SALMONELLA TYPHIMURIUM, Strain/Indicator: TA100, Metabolic Activation: PEA APICAL BUD S-9, Method: STANDARD PLATE): active; positive
- mutagenic call (Test System: AMES SALMONELLA TYPHIMURIUM, Strain/Indicator: TA100, Metabolic Activation: PLANT (PERSEA AMERICANA) S-117, Method: STANDARD PLATE): inactive; negative
- mutagenic call (Test System: AMES SALMONELLA TYPHIMURIUM, Strain/Indicator: TA100, Metabolic Activation: PLANT (ZEA MAYS) S-9, Method: STANDARD PLATE): inactive; negative
- mutagenic call (Test System: AMES SALMONELLA TYPHIMURIUM, Strain/Indicator: TA100, Metabolic Activation: RAT LIVER S-9, PHENOBARBITAL AND BETA-NAPHTHOFLAVONE, Method: PREINCUBATION): active; positive
- mutagenic call (Test System: AMES SALMONELLA TYPHIMURIUM, Strain/Indicator: TA100, Metabolic Activation: RAT, LIVER, S-9, AROCLOR 1254 (10%), Method: PREINCUBATION): active; positive
- mutagenic call (Test System: AMES SALMONELLA TYPHIMURIUM, Strain/Indicator: TA100, Metabolic Activation: RAT, LIVER, S-9, PCB, Method: PREINCUBATION): active; positive
- mutagenic call (Test System: AMES SALMONELLA TYPHIMURIUM, Strain/Indicator: TA1535, Metabolic Activation: HAMSTER, LIVER, S-9, AROCLOR 1254 (10%), Method: PREINCUBATION): inactive; negative
- mutagenic call (Test System: AMES SALMONELLA TYPHIMURIUM, Strain/Indicator: TA1535, Metabolic Activation: NONE, Method: PREINCUBATION): inactive; negative
- mutagenic call (Test System: AMES SALMONELLA TYPHIMURIUM, Strain/Indicator: TA1535, Metabolic Activation: RAT LIVER S-9, PHENOBARBITAL AND BETA-NAPHTHOFLAVONE, Method: PREINCUBATION): inactive; negative
- mutagenic call (Test System: AMES SALMONELLA TYPHIMURIUM, Strain/Indicator: TA1535, Metabolic Activation: RAT, LIVER, S-9, AROCLOR 1254 (10%), Method: PREINCUBATION): inactive; negative
- mutagenic call (Test System: AMES SALMONELLA TYPHIMURIUM, Strain/Indicator: TA1537, Metabolic Activation: NONE, Method: PREINCUBATION): inactive; negative
- mutagenic call (Test System: AMES SALMONELLA TYPHIMURIUM, Strain/Indicator: TA1537, Metabolic Activation: RAT LIVER S-9, PHENOBARBITAL AND BETA-NAPHTHOFLAVONE, Method: PREINCUBATION): active; positive
- mutagenic call (Test System: AMES SALMONELLA TYPHIMURIUM, Strain/Indicator: TA1538, Metabolic Activation: RAT, LIVER, S-9, AROCLOR 1254, Method: STANDARD PLATE): active; positive
- mutagenic call (Test System: AMES SALMONELLA TYPHIMURIUM, Strain/Indicator: TA1538, Metabolic Activation: RAT, LIVER, S-9, PHENOBARBITAL, Method: STANDARD PLATE): active; positive
- mutagenic call (Test System: AMES SALMONELLA TYPHIMURIUM, Strain/Indicator: YG1024, Metabolic Activation: PLANT (PERSEA AMERICANA) S-117, Method: STANDARD PLATE): inactive; negative
- mutagenic call (Test System: AMES SALMONELLA TYPHIMURIUM, Strain/Indicator: YG1024, Metabolic Activation: PLANT (ZEA MAYS) S-9, Method: STANDARD PLATE): inactive; negative
- mutagenic call (Test System: AMES SALMONELLA TYPHIMURIUM, Strain/Indicator: YG1029, Metabolic Activation: PLANT (PERSEA AMERICANA) S-117, Method: STANDARD PLATE): inactive; negative
- mutagenic call (Test System: AMES SALMONELLA TYPHIMURIUM, Strain/Indicator: YG1029, Metabolic Activation: PLANT (ZEA MAYS) S-9, Method: STANDARD PLATE): inactive; negative
- mutagenic call (Test System: E.COLI, Strain/Indicator: WP2UVRA, Metabolic Activation: NONE, Method: PREINCUBATION): inactive; negative

Compound: CCN(CC)CCCNC(=O)C(=O)N/N=C/c1ccc([N+](=O)[O-])o1
- mutagenic call (Test System: E. COLI, Strain/Indicator: WP2 UVRA, Metabolic Activation: NONE, Method: STANDARD PLATE): active; positive

Compound: O[C@@H]1[C@H]2O[C@H]2c2c(ccc3c2ccc2ccccc23)[C@H]1O
- mutagenic call [1]: active; positive
- mutagenic call (Test System: AMES SALMONELLA TYPHIMURIUM, Strain/Indicator: TA98, Metabolic Activation: NONE, Method: PREINCUBATION): active; positive
- mutagenic call (Test System: AMES SALMONELLA TYPHIMURIUM, Strain/Indicator: TA100, Metabolic Activation: NONE, Method: PREINCUBATION): active; positive
- mutagenic call (Test System: AMES SALMONELLA TYPHIMURIUM, Strain/Indicator: TA104, Metabolic Activation: NONE, Method: PREINCUBATION): active; positive
- mutagenic call (Test System: CHINESE HAMSTER V-79, Strain/Indicator: V-79/6-THIOGUANINE, Metabolic Activation: NONE, Method: STANDARD PLATE): active; positive

— PubChem BioAssay AID1259407 (Chemical Carcinogenesis Research Information System (CCRIS), 2018)
